Paper PMC12246642 (iScience, 2025)
pEC50, pIC50, pKi: −log10 of the molar value. Where a SMILES comes first, the peptide text is derived from it. [ ]: non-standard residue; d: D form. The star is where a group is joined. Met(O2) = CS(=O)(=O)CC[C@H](N)C(=O)O; Ala(cPr) = N[C@@H](CC1CC1)C(=O)O; Cbz = O=C(OCc1ccccc1)*

Key:
SARS-CoV-2 = assay: Anti-viral potency: inhibition of in vitro replication of SARS-CoV-2 in A549 cells; assay type: cell-based; details: for pEC50: Severe acute respiratory syndrome coronavirus 2, A549 cells, 10-point titration from 50 μM, triplicate
[1] = assay type: physicochemical; details: 500 μM, monitored for 10 h at 16-min intervals
SARS-CoV-2 Mpro [2] = target: T1, SARS-CoV-2 Mpro (Severe acute respiratory syndrome coronavirus 2, UniProt P0DTD1); assay type: binding; details: 40 μM 15N-labeled deuterated Mpro, 20 or 40 μM compound, SPR buffer
SARS-CoV-2 Mpro [3] = target: T1, SARS-CoV-2 Mpro; assay: biochemical; assay type: biochemical; details: for pIC50 / pKi: Kinetics N = 2 (95% CI); for pIC50: 4-parameter fit of the same data; for pKi: Morrison fit, 1 nM Mpro, 800 mM citrate buffer, 15 min preincubation
SARS-CoV-2 Mpro [4] = target: T1, SARS-CoV-2 Mpro; assay: Covalent bond (adduct) formation kinetics by IR-MALDESI intact protein MS; assay type: binding; details: for kobs (95 % CI) for adduct formation / kobs (95 % CI) Quenched, SPR: SPR buffer; for kobs (95 % CI) for adduct formation: Figure 2; for kobs (95 % CI) Quenched, SPR / kobs (95 % CI) Quenched, Citrate: quenched with 200 μM compound 9, 10 μM compound and Mpro, Figure S5; for kobs (95 % CI) Quenched, Citrate: citrate buffer, only estimated for lack of early timepoints
SARS-CoV-2 Mpro [5] = target: T1, SARS-CoV-2 Mpro; assay type: binding; details: 300 μM 13C-labeled compound, 100 μM Mpro, SPR buffer; for covalent adduct formation with Cys145 seen by 13C NMR: up to 3 h (compound 1) or 6 h (compound 5)
[6] = first determination, 4-parameter IC50 fit
[7] = second determination, 4-parameter IC50 fit

Structure (SMILES)	pEC50 (SARS-CoV-2)	epimerization at P1: αH resonance in D2O SPR buffer [1]	exchange regime of binding on the NMR timescale (SARS-CoV-2 Mpro [2])	Hill slope (SARS-CoV-2 Mpro [3]; 4-parameter IC50 refit)	Hill slope (SARS-CoV-2 Mpro [3]; [6])	Hill slope (SARS-CoV-2 Mpro [3]; [7])	kobs (95 % CI) for adduct formation (SARS-CoV-2 Mpro [4]; Ratio Cmpd:Mpro 1:1)	kobs (95 % CI) for adduct formation (SARS-CoV-2 Mpro [4]; Ratio Cmpd:Mpro 2:1)	kobs (95 % CI) for adduct formation (SARS-CoV-2 Mpro [4]; Ratio Cmpd:Mpro 5:1)	kobs (95 % CI) Quenched, SPR (SARS-CoV-2 Mpro [4]) [Min -1]	kobs (95 % CI) Quenched, Citrate (SARS-CoV-2 Mpro [4]) [Min -1]	non-covalently bound form seen by 13C NMR (SARS-CoV-2 Mpro [5]; extended incubation)	covalent adduct formation with Cys145 seen by 13C NMR (SARS-CoV-2 Mpro [5])	decrease of cellular EC50 versus the Ki determined in citrate buffer (SARS-CoV-2; EC50 in A549 cells versus Ki) [fold]	pIC50 (SARS-CoV-2 Mpro [3]; first determination)	pKi (SARS-CoV-2 Mpro [3]; first determination)	pIC50 (SARS-CoV-2 Mpro [3]; second determination)	pKi (SARS-CoV-2 Mpro [3]; second determination)
COc1cccc2[nH]c(C(=O)N[C@@H](CC3CC3)C(=O)N[C@H](C=O)C[C@@H]3CCNC3=O)cc12 [Compound 1, N-((S)-3-cyclopropyl-1-oxo-1-(((S)-1-oxo-3-((S)-2-oxopyrrolidin-3-yl)propan-2-yl)amino)propan-2-yl)-4-methoxy-1H-indole-2-carboxamide]	5.21	no change in intensity	slow exchange regime	greater than 1	3.1	2.0	0.11 (0.04919 to 0.2232)	0.34 (0.1598 to 0.8874)	2.0 (1.597 to 2.492)	0.13	0.31	stably bound to Mpro non-covalently	thiohemiacetal formation					
COc1cccc2[nH]c(C(=O)N[C@@H](CC3CC3)C(=O)N[C@H](C#N)CCS(C)(=O)=O)cc12 [Compound 7, N-((S)-1-(((S)-1-cyano-3-(methylsulfonyl)propyl)amino)-3-cyclopropyl-1-oxopropan-2-yl)-4-methoxy-1H-indole-2-carboxamide]	< 4.30				0.6													
N#C[C@H](C[C@@H]1CCNC1=O)NC(=O)[C@H](CC1CC1)NC(=O)OCc1ccccc1 [Compound 6, benzyl ((S)-1-(((S)-1-cyano-2-((S)-2-oxopyrrolidin-3-yl)ethyl)amino)-3-cyclopropyl-1-oxopropan-2-yl)carbamate]	4.89				1.1	1.0				0.08	0.34							
COc1cccc2[nH]c(C(=O)N[C@@H](CC3CC3)C(=O)N[C@H](C#N)C[C@@H]3CCNC3=O)cc12 [Compound 5, N-((S)-1-(((S)-1-cyano-2-((S)-2-oxopyrrolidin-3-yl)ethyl)amino)-3-cyclopropyl-1-oxopropan-2-yl)-4-methoxy-1H-indole-2-carboxamide]	5.49		fast exchange regime		1.0	1	0.33 (0.2393 to 0.4596)	0.40 (0.2513 to 0.6949)	1.6 (0.7658 to 3.045)	1.2	0.47		no new peaks emerged to suggest thioimidate formation	760				
COc1cccc2[nH]c(C(=O)N[C@@H](CC3CC3)C(=O)N[C@H](C=O)CCS(C)(=O)=O)cc12 [Compound 3, N-((S)-3-cyclopropyl-1-(((S)-4-(methylsulfonyl)-1-oxobutan-2-yl)amino)-1-oxopropan-2-yl)-4-methoxy-1H-indole-2-carboxamide]				1.5	1.5	1.5				0.18	0.30							
CS(=O)(=O)CC[C@@H](C#N)NC(=O)[C@H](CC1CC1)NC(=O)OCc1ccccc1 [Compound 8, benzyl ((S)-1-(((S)-1-cyano-3-(methylsulfonyl)propyl)amino)-3-cyclopropyl-1-oxopropan-2-yl)carbamate]															< 4.90	< 4.90	< 4.90	< 4.90
CS(=O)(=O)CC[C@@H](C=O)NC(=O)[C@H](CC1CC1)NC(=O)OCc1ccccc1 [Compound 4, benzyl ((S)-3-cyclopropyl-1-(((S)-4-(methylsulfonyl)-1-oxobutan-2-yl)amino)-1-oxopropan-2-yl)carbamate] (Cbz-[Ala(cPr)]-[Met(O2)]-aldehyde)	4.66				1.0	1.0				0.29	0.35							
O=C[C@H](C[C@@H]1CCNC1=O)NC(=O)[C@H](CC1CC1)NC(=O)OCc1ccccc1 [Compound 2, benzyl ((S)-3-cyclopropyl-1-oxo-1-(((S)-1-oxo-3-((S)-2-oxopyrrolidin-3-yl)propan-2-yl)amino)propan-2-yl)carbamate]	5.48			greater than 1	2.7	2.5				0.49	0.85							
